The target of one assay is α1β1γ2 GABAA receptors. Also noted: method as in earlier work. Particulars: published data, ref 1 (Supplementary References), read-out: Approximate EC50; cited from earlier work.
The next assay concerns the target T1, α1β1δ GABAA receptors (Rattus norvegicus, UniProt P15431+P62813).
T1 construct: expressed in transfected cells; host or cells: Xenopus laevis oocytes, mRNA injected
As to the kind of experiment: Two electrode voltage clamp in Xenopus laevis oocytes, α1β1δ. The format is cell-based. Particulars: α1β1δ. The source says:
(§1) cDNA’s of rat GABAA receptor subunits α1, α4, β1, β2, β3 and γ2S were cloned as described. cDNAs of the rat subunits α2, α3 and α5 were gifts from P. Malherbe, that of α6 and γ1 were gifts of P. Seeburg and that of δ was a gift of C. Czajkowski. The mutants were constructed using the Q5 Site-Directed Mutagenesis Kit (New England Biolabs) following manufacturer’s instruction. We used the wild-type rat β3-pCI vector as template and the primers […] and […] resulting in a substitution of amino acid N41 (AAC) to R (AGG). We used the wild-type rat β1-pCI vector as template and the primers […] and […] resulting in a substitution of amino acid R41 (CGG) to N (AAC). The mutated subunits were confirmed by sequencing.
(§2) In vitro transcription of mRNA was based on the cDNA expression vectors encoding for rat GABAA receptor subunits α1–6, β1-3, γ1,2, δ and the two β mutants (β1R41N and β3N41R)[40]. After linearizing the cDNA vectors with appropriate restriction endonucleases, the cDNA was purified and concentrated with the DNA Clean and Contentrator ^TM Kit (Zymoresearch, Catalog No. D4005). Capped transcripts of the purified cDNA were produced using the mMESSAGE mMACHINE® T7 transcription kit (Ambion, TX, USA) and polyadenylated using the Ambion PolyA tailing kit (Ambion). After transcription and polyadenylation the RNA was purified with the MEGAclear ^TM Kit (Ambion, Catalog No. AM1908). The final RNA concentration was measured on NanoDrop® ND-1000 and finally diluted and stored in diethylpyrocarbonate-treated water at −80 °C. For the microinjection, the RNA of αβ receptor combinations was mixed at 1:1 ratio (which leads to αβ receptors that consist of predominantly 3 beta and 2 alpha subunits[27]), for αkβlγm (k = 1–3, l = 1, 3, m = 1, 2) receptors at 1:1:5 ratio, for αkβ3γ2 (k = 4–6) and αkβlδ (k = 1, 4 and 6, l = 1, 3) receptor combinations at 3:1:5 ratio.
(§3) Mature female Xenopus laevis (Nasco, WI) were anesthetized in a bath of ice-cold 0.17% Tricain (Ethyl-m-aminobenzoate, Sigma, MO) before decapitation in full accordance with all rules of the Austrian animal protection law (see http://www.ris.bka.gv.at/Dokumente/BgblAuth/BGBLA_2012_I_114/BGBLA_2012_I_114.pdf) and the Austrian animal experiment by-laws (see https://www.ris.bka.gv.at/Dokumente/BgblAuth/BGBLA_2012_II_522/BGBLA_2012_II_522.pdf) which implement the European Directive 2010/63/EU (see http://eur-lex.europa.eu/LexUriServ/LexUriServ.do?uri=OJ:L:2010:276:0033:0079:en:PDF) into the Austrian law (all information accessed on July 27, 2016). The frog’s ovaries were transferred to ND96 medium (96 mM NaCl, 2 mM KCl, 1 mM MgCl2, 5 mM HEPES; pH 7.5). Stage 5–6 oocytes with the follicle cell layer around them were roughly dissected with forceps into packages of 10–15 cells and washed in Ca^2+-free ND96 medium. Cells were then digested with collagenase (type IA, Sigma, NO, 1 mg/mL ND96) at 18 °C shaking at 30 rpm for 30–60 minutes and gently defolliculated with the aid of a glass pipette with appropriate tip diameter and a platinum loop. Defolliculated cells were stored at 18 °C for at least 6 hours in ND96 solution containing penicillin G (10000 IU/100 mL) and streptomycin (10 mg/100 mL) in order to preselect and exclude damaged cells from further treatment. Healthy defolliculated oocytes were injected with an aqueous solution of mRNA. A total of 4.5 ng of mRNA per oocyte was injected with a Nanoject II (Drummond). After injection of mRNA, oocytes were incubated at 18 °C (ND96 + antibiotic) for 2–3 days for αβ receptors and for 3–4 days for αβγ or αβδ receptors before recording. When cells were measured at later time points, oocytes were stored at +4 °C instead of 18 °C.
(§4) For electrophysiological recordings, oocytes were placed on a nylon-grid in a bath of Ca^2+-containing NDE solution medium [96 mM NaCl, 5 mM HEPES-NaOH (pH 7.5), 2 mM KCl, 1 mM MgCl2, 1.8 mM CaCl2].

The target in the next assay is T2, α1β1γ1 GABAA receptors (Rattus norvegicus, UniProt P15431+P62813).
T2 construct: expressed in transfected cells; host or cells: Xenopus laevis oocytes, mRNA injected
As to the kind of experiment: Two electrode voltage clamp in Xenopus laevis oocytes, α1β1γ1. The format is cell-based.
Excerpt: as §1, §2, §3, §4
Background: Two-electrode voltage clamp is typically applied to oocytes expressing channels or transporters.

For the next assay, the target named is α1β2γ2 GABAA receptors. Also noted: method as in earlier work. Particulars: published data, ref 1 (Supplementary References), read-out: Approximate EC50; cited from earlier work.
The target of another assay is T3, α5β3 GABAA receptors (Rattus norvegicus, UniProt P19969+P63079).
T3 construct: expressed in transfected cells; host or cells: Xenopus laevis oocytes, mRNA injected
More on the design: method as in earlier work. Particulars: published data, ref 1 (Supplementary References), read-out: Approximate EC50; cited from earlier work.

In a further assay the target is T4, α6β3γ2 GABAA receptors (Rattus norvegicus, UniProt P30191+P63079).
T4 construct: expressed in transfected cells; host or cells: Xenopus laevis oocytes, mRNA injected
Also noted: method as in earlier work. Particulars: published data, ref 1 (Supplementary References), read-out: Approximate EC50; cited from earlier work.

In a further assay the target is T5, α2β3γ2 GABAA receptors (Rattus norvegicus, UniProt P23576+P63079).
T5 construct: expressed in transfected cells; host or cells: Xenopus laevis oocytes, mRNA injected
More on the design: method as in earlier work. Particulars: published data, ref 1 (Supplementary References), read-out: Approximate EC50; cited from earlier work.

For the next assay, the target named is T6, α1β3γ2 GABAA receptors (Rattus norvegicus, UniProt P62813+P63079).
T6 construct: expressed in transfected cells; host or cells: Xenopus laevis oocytes, mRNA injected
More on the design: method as in earlier work. Particulars: published data, ref 1 (Supplementary References), read-out: Approximate EC50; cited from earlier work.

A further assay deals with T7, α1β3 GABAA receptors (Rattus norvegicus, UniProt P62813+P63079).
T7 construct: expressed in transfected cells; host or cells: Xenopus laevis oocytes, mRNA injected
More on the design: method as in earlier work. Particulars: published data, ref 1 (Supplementary References), read-out: Approximate EC50; cited from earlier work.

The next assay concerns the target α2β2γ2 GABAA receptors. Also noted: method as in earlier work. Particulars: published data, ref 1 (Supplementary References), read-out: Approximate EC50; cited from earlier work.
Another assay concerns the target T8, α2β3 GABAA receptors (Rattus norvegicus, UniProt P23576+P63079).
T8 construct: expressed in transfected cells; host or cells: Xenopus laevis oocytes, mRNA injected
More on the design: method as in earlier work. Particulars: published data, ref 1 (Supplementary References), read-out: Approximate EC50; cited from earlier work.

The target in the next assay is α2β1γ2 GABAA receptors. More on the design: method as in earlier work. Particulars: published data, ref 1 (Supplementary References), read-out: Approximate EC50; cited from earlier work.

SMILES strings stand for the structures. Read-outs that look alike come from different tables or passages of the source.

T2 sequence (P62813 28-455): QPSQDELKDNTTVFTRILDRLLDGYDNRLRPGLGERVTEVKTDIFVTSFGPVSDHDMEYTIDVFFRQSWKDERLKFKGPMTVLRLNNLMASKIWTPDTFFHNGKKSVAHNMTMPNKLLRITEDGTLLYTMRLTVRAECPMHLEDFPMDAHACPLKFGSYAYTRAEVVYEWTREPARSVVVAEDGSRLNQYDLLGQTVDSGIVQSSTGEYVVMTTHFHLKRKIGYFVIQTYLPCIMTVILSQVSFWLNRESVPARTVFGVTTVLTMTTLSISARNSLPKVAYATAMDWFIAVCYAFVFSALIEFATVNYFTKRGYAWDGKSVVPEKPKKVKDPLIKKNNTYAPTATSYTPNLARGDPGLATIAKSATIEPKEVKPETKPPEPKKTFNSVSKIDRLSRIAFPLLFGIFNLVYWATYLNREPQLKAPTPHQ
T2 sequence (P15431 26-474): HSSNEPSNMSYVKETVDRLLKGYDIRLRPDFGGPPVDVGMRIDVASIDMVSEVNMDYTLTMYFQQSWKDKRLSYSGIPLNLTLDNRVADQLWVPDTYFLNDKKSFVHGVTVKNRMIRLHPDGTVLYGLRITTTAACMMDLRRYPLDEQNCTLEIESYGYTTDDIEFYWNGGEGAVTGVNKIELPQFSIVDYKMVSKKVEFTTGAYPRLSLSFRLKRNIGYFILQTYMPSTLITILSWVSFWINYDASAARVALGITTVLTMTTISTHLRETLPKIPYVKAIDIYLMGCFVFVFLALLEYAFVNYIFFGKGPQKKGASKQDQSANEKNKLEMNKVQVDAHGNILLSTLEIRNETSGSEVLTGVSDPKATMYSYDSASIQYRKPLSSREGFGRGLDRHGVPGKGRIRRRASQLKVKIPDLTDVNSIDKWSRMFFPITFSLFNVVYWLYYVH
T2 sequence (P23574 36-465 partner limits assumed): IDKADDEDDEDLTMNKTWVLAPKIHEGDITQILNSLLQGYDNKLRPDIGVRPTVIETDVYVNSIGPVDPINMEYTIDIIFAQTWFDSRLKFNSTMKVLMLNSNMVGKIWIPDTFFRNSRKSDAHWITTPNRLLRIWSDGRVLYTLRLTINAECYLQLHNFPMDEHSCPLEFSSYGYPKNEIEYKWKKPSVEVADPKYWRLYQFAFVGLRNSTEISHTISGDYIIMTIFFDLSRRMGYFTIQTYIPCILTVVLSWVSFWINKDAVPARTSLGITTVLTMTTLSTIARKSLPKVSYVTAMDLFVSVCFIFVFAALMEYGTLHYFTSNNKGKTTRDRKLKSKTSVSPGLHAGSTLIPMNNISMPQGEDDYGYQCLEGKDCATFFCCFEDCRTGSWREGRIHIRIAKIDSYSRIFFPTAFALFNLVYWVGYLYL
T1 sequence (P62813 28-455): as the sequence (P62813 28-455) above
T1 sequence (P15431 26-474): as the sequence (P15431 26-474) above
T1 sequence (P18506 17-449 partner limits assumed): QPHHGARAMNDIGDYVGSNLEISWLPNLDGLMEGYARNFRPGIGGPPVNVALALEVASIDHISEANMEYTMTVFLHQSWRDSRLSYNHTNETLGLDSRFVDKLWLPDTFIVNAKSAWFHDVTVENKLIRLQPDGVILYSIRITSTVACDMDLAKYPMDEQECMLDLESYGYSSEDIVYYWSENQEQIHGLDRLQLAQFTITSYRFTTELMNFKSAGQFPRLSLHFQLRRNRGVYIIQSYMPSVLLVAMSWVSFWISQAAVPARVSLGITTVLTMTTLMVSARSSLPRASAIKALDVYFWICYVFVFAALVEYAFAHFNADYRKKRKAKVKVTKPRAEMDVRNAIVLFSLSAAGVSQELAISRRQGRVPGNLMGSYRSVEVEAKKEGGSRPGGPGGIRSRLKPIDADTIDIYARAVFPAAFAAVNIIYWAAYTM
T3 sequence (P19969 32-464 limits assumed): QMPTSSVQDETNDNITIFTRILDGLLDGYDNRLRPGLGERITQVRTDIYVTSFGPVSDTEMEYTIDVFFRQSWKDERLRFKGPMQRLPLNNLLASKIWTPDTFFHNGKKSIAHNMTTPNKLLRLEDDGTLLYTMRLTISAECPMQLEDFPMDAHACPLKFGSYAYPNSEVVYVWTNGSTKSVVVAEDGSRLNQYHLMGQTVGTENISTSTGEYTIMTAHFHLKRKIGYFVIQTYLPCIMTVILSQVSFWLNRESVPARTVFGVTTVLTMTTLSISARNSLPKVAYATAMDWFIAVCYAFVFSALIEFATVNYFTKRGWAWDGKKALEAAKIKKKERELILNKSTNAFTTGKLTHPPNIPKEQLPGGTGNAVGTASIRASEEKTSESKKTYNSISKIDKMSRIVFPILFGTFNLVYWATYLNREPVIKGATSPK
T3 sequence (P63079 26-473): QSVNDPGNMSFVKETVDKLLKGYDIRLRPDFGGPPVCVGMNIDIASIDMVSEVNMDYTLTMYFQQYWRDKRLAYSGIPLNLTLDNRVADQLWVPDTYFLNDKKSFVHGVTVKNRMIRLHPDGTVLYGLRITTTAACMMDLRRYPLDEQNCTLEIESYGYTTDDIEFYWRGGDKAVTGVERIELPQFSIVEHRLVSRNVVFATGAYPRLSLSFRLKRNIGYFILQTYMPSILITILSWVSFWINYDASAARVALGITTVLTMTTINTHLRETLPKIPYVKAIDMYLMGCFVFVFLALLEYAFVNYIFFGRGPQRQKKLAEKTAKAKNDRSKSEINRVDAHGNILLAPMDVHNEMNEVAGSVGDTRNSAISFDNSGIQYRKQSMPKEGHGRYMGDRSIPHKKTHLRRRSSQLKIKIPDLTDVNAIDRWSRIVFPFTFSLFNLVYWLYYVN
T4 sequence (P30191 20-453): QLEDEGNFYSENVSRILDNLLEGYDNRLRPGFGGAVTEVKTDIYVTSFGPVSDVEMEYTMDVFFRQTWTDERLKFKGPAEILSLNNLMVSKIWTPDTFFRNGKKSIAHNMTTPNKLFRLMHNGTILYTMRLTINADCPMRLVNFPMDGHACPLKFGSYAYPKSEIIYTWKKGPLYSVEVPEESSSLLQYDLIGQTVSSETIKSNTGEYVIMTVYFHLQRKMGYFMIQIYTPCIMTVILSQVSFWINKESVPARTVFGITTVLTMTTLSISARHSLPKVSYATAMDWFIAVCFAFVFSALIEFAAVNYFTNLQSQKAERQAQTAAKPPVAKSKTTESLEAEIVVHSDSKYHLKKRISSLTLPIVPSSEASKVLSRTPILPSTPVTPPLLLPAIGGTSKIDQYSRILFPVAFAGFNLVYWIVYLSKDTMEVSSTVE
T4 sequence (P63079 26-473): as the sequence (P63079 26-473) above
T4 sequence (P18508 39-466 partner): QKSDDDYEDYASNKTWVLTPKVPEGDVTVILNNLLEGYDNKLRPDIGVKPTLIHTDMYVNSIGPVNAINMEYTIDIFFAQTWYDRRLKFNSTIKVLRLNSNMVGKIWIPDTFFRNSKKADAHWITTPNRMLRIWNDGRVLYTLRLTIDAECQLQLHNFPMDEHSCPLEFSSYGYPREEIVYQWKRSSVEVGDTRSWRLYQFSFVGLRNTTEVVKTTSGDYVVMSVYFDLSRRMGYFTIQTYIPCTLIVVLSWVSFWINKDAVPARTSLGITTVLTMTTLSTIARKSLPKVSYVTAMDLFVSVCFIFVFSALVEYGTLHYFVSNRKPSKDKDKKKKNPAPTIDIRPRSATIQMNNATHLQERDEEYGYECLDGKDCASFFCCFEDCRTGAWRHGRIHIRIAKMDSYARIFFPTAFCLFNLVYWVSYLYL
T5 sequence (P23576 29-451): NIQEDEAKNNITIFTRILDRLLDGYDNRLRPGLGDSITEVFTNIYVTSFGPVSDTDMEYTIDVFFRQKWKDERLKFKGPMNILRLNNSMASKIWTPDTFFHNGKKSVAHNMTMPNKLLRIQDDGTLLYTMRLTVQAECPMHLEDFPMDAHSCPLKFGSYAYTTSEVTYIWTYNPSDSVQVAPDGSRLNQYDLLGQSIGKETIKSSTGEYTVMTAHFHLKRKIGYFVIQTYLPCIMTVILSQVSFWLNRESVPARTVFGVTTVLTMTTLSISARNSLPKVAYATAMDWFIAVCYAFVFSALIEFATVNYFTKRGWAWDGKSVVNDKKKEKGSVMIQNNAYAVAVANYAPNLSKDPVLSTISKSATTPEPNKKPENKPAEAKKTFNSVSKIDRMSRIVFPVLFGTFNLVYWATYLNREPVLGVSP
T5 sequence (P63079 26-473): as the sequence (P63079 26-473) above
T5 sequence (P18508 39-466 partner): as the sequence (P18508 39-466 partner) above
T8 sequence (P23576 29-451): as the sequence (P23576 29-451) above
T8 sequence (P63079 26-473): as the sequence (P63079 26-473) above
T6 sequence (P62813 28-455): as the sequence (P62813 28-455) above
T6 sequence (P63079 26-473): as the sequence (P63079 26-473) above
T6 sequence (P18508 39-466 partner): as the sequence (P18508 39-466 partner) above
T7 sequence (P62813 28-455): as the sequence (P62813 28-455) above
T7 sequence (P63079 26-473): as the sequence (P63079 26-473) above

For `COc1ccc(-n2nc3c4cc(Cl)ccc4[nH]cc-3c2=O)cc1` [Compound 1, 8-Chloro-2-(4-methoxyphenyl)-2H-pyrazolo[4,3-c]quinolin-3(5H)-one], the EC50 at α1β1γ2 GABAA receptors was ~100 nM; at α1β1δ GABAA receptors (co-applied with GABA EC3-5, read-out: EC50) it was 70 nM; on α1β1δ GABAA receptors (log of EC50, sign as printed, read-out: LogEC50 (converted)), 100 nM; at α1β1γ1 GABAA receptors, 80 nM; on α1β2γ2 GABAA receptors it was ~1900 nM; on α5β3 GABAA receptors it was ~600 nM. The EC50 is ~3300 nM on α6β3γ2 GABAA receptors; ~2200 nM on α2β3γ2 GABAA receptors; ~1800 nM at α1β3γ2 GABAA receptors; ~1600 nM on α1β3 GABAA receptors; ~3500 nM on α2β2γ2 GABAA receptors; ~3000 nM at α2β3 GABAA receptors. In addition, the EC50 on α2β1γ2 GABAA receptors is ~50 nM. On α1β1δ GABAA receptors (read-out: efficacy, % of control current (GABA EC3-5 = 100%), 10 nM), the activity at 0.01 µM was 126 ± 5.6%. Moreover, at α1β1δ GABAA receptors (read-out: efficacy, % of control current (GABA EC3-5 = 100%), 30 nM), the activity at 0.03 µM was 192 ± 21.1%. For the same compound, the activity at 10 µM at α1β1δ GABAA receptors (read-out: efficacy, % of control current (GABA EC3-5 = 100%), 10 µM) was 294 ± 11.1%; on α1β1γ1 GABAA receptors (read-out: efficacy, % of control current (GABA EC3-5 = 100%), α1β1γ1, 10 µM), 300 ± 20.8%. The “Hill slope (nH)” value on α1β1δ GABAA receptors is recorded as 0.8±0.2; at α1β1γ1 GABAA receptors (α1β1γ1) it was 1.1±0.4. Moreover, the activity at 0.001 µM on α1β1γ1 GABAA receptors (read-out: efficacy, % of control current (GABA EC3-5 = 100%), α1β1γ1, 1 nM) worked out at 110 ± 9.9%. Further, on α1β1γ1 GABAA receptors (read-out: efficacy, % of control current (GABA EC3-5 = 100%), α1β1γ1, 1 µM), the activity at 1 µM stood at 320 ± 17.9%.

These data come from publication PMC5516028, “Molecular tools for GABAA receptors: High affinity ligands for β1-containing subtypes” (Scientific Reports, 2017).
